Data on four compounds can be found in publication PMC3474704 (Clinical cancer research : an official journal of the …, 2012).

One data set has as its system HT29 tumors. In words: HT29 xenograft growth delay, combination with irinotecan. The format is in vivo, mouse. To be noted: HT29 tumors; irinotecan alone 25mg/kg i.p. days 0, 4, 8.
Another data set concerns SW620 cells. Kind of data set: Contact time / scheduling study with gemcitabine in SW620.
Another data set deals with HT29 xenografts. Kind of data set: HT29 xenograft growth delay, combination with gemcitabine. The class given is in vivo, mouse. The following applies: gemcitabine alone 100mg/kg i.v. days 0, 7, 14.
The next data set relates to Calu6 xenografts. In words: Calu6 xenograft growth delay, combination with gemcitabine. The format is in vivo, mouse. The following applies: Calu6 xenografts; CCT244747 75mg/kg p.o. or gemcitabine 100mg/kg i.v. alone.
Data set [1] relates to HT29 colon carcinoma cells. Kind of data set: Cell cycle analysis. The format is cell-based, human. To be noted: etoposide 25μM × 1h, measured at 24h.

Some results are limits rather than exact numbers.

Consider `CCc1c2c(nc3ccc(OC(=O)N4CCC(N5CCCCC5)CC4)cc13)-c1cc3c(c(=O)n1C2)COC(=O)[C@]3(O)CC` [irinotecan, reference compound], for which, in the data set with HT29 tumors, the growth delay was 6.9 days.

In the case of `C[C@H](CN(C)C)Oc1nc(Nc2cc3cccc(Cl)c3cn2)cnc1C#N` [SAR-020106], the “enhancement of gemcitabine activity” value with SW620 cells (exposures <24h) is “minimal enhancement”. Moreover, in the data set with SW620 cells (gemcitabine), the “continuous exposure giving maximum potentiation of gemcitabine cytotoxicity” value is listed as at least 48 h.

As for `Nc1ccn([C@@H]2O[C@H](CO)[C@@H](O)C2(F)F)c(=O)n1` [gemcitabine, reference compound], the growth delay in the data set on HT29 xenografts came out at 2.3 days. Further, the “antitumor activity of each agent alone” value with Calu6 xenografts is given as “minimal activity”.

With `COc1cc([C@@H]2c3cc4c(cc3[C@@H](O[C@@H]3O[C@@H]5CO[C@@H](C)O[C@H]5[C@H](O)[C@H]3O)[C@H]3COC(=O)[C@H]23)OCO4)cc(OC)c1O` [etoposide, reference compound], in data set [1], the “cells in G2/M” value is listed as 70.5%.
